# PubChem BioAssay (NCI)
#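 Protocol summary: plate cells (96-well), add compound at 5 concentrations, incubate 48 h, interpolate endpoints linearly. The concentration for full growth arrest is given as TGI.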
# Legend:
# Assay in all cases: NCI tumour cell line growth inhibition, 48 h
# [1] = system: RPMI-8226 leukemia
# [2] = system: UACC-62 melanoma
# [3] = system: SK-MEL-5 melanoma
# [4] = system: MOLT-4 leukemia
# [5] = system: NCI-H460 lung
# [6] = system: DMS 273 small cell lung
# [7] = system: SK-OV-3 ovarian
# [8] = system: U251 CNS
# [9] = system: MCF7 breast
# [10] = system: EKVX NSCLC
# [11] = system: LOX IMVI melanoma
# [12] = system: HOP-62 NSCLC
# [13] = system: SN12C renal
# [14] = system: SK-MEL-2 melanoma
# [15] = system: NCI-H23 lung
# [16] = system: SK-MEL-28 melanoma
# [17] = system: KM20L2 colon
# [18] = system: P388 leukemia
# [19] = system: SN12K1 renal
# [20] = system: COLO 205 colon
# [21] = system: OVCAR-3 ovarian
# [22] = system: A549 NSCLC
# [23] = system: NCI-H226 lung
# [24] = system: HCT-15 colon
# [25] = system: SNB-19 CNS
# [26] = system: OVCAR-4 ovarian
# [27] = system: K-562 leukemia
# [28] = system: NCI-H522 lung
# [29] = system: IGROV1 ovarian
# [30] = system: M19-MEL melanoma
# [31] = system: SNB-78 CNS
# [32] = system: HT29 colon
# [33] = system: SW-620 colon
# [34] = system: HL-60(TB) leukemia
# [35] = system: UACC-257 melanoma
# [36] = system: SF-539 CNS
# [37] = system: DLD-1 colon
# [38] = system: RXF 393 renal
# [39] = system: NCI/ADR-RES ovarian
# [40] = system: SF-295 CNS
# [41] = system: MALME-3M melanoma
# [42] = system: UO-31 renal
# [43] = system: A498 renal
# [44] = system: P388/ADR leukemia
# [45] = system: CCRF-CEM leukemia
# [46] = system: SNB-75 CNS
# [47] = system: OVCAR-5 ovarian
# [48] = system: OVCAR-8 ovarian
# [49] = system: KM12 colon
# [50] = system: HOP-92 NSCLC
# [51] = system: HCT-116 colon
# [52] = system: HCC-2998 colon
# [53] = system: SF-268 CNS
# [54] = system: DMS 114 small cell lung
# [55] = system: 786-0 renal
# [56] = system: HOP-18 NSCLC
# [57] = system: LXFL 529 NSCLC
# [58] = system: RXF-631 renal
# [59] = system: XF 498 CNS
# [60] = system: SR leukemia
# [61] = system: M14 melanoma
# [62] = system: ACHN renal
# [63] = system: TK-10 renal
# [64] = system: CAKI-1 renal
smiles,measurement,setting,value
CCCCCCCCC1=CCC(CN(C)C)C1=O (stereo not drawn),TGI,[1],4.2 µM
same,TGI,[2],33.2 µM
same,TGI,[3],41.4 µM
same,TGI,[4],48.2 µM
same,TGI,[5],26.1 µM
same,TGI,[6],35.3 µM
same,TGI,[7],> 100 µM
same,TGI,[8],32.8 µM
same,TGI,[9],13.6 µM
same,TGI,[10],48.1 µM
same,TGI,[11],33.7 µM
same,TGI,[12],> 31.6 µM
same,TGI,[13],32.4 µM
same,TGI,[14],46.1 µM
same,TGI,[15],39.2 µM
same,TGI,[16],38.2 µM
same,TGI,[17],47.4 µM
same,TGI,[18],46.5 µM
same,TGI,[19],32.1 µM
same,TGI,[20],33.9 µM
same,TGI,[21],34.3 µM
same,TGI,[22],> 100 µM
same,TGI,[23],> 76.3 µM
same,TGI,[24],33.7 µM
same,TGI,[25],> 79 µM
same,TGI,[26],50.8 µM
same,TGI,[27],59 µM
same,TGI,[28],31.3 µM
same,TGI,[29],35.9 µM
same,TGI,[30],32.3 µM
same,TGI,[31],46.4 µM
same,TGI,[32],35.4 µM
same,TGI,[33],36.6 µM
same,TGI,[34],33.8 µM
same,TGI,[35],45.7 µM
same,TGI,[36],36.9 µM
same,TGI,[37],35 µM
same,TGI,[38],36 µM
same,TGI,[39],41.7 µM
same,TGI,[40],> 60.7 µM
same,TGI,[41],32.3 µM
same,TGI,[42],39.2 µM
same,TGI,[43],> 58.4 µM
same,TGI,[44],15 µM
same,TGI,[45],> 60.1 µM
same,TGI,[46],32.1 µM
same,TGI,[47],> 72.4 µM
same,TGI,[48],34.9 µM
same,TGI,[49],38 µM
same,TGI,[50],31 µM
same,TGI,[51],36.5 µM
same,TGI,[52],27.7 µM
same,TGI,[53],34.7 µM
same,TGI,[54],34.4 µM
CCCCCCC[C@@H](O)CC(=O)NC(CC(C)C)C(=O)NC(CCC(=O)O)C(=O)NC1C(=O)NC(C(C)C)C(=O)NC(CC(C)C)C(=O)NC(CO)C(=O)NC(CC(C)C)C(=O)NC(CO)C(=O)NC(C(C)CC)C(=O)OC1C (stereo partly drawn),TGI,[1],33.5 µM
same,TGI,[2],29.1 µM
same,TGI,[3],29.9 µM
same,TGI,[4],39.9 µM
same,TGI,[5],11.3 µM
same,TGI,[6],28.1 µM
same,TGI,[7],34.4 µM
same,TGI,[8],20.9 µM
same,TGI,[55],27.9 µM
same,TGI,[56],24.9 µM
same,TGI,[11],31.2 µM
same,TGI,[12],24.4 µM
same,TGI,[13],29.5 µM
same,TGI,[15],29.9 µM
same,TGI,[16],30.6 µM
same,TGI,[57],25.8 µM
same,TGI,[17],30.5 µM
same,TGI,[20],2.93 µM
same,TGI,[58],28.8 µM
same,TGI,[21],31.1 µM
same,TGI,[22],36.1 µM
same,TGI,[23],34.2 µM
same,TGI,[24],4.42 µM
same,TGI,[25],16.6 µM
same,TGI,[26],34.4 µM
same,TGI,[27],30.9 µM
same,TGI,[28],26.6 µM
same,TGI,[29],31.6 µM
same,TGI,[59],15.2 µM
same,TGI,[30],22.6 µM
same,TGI,[31],34.3 µM
same,TGI,[32],31 µM
same,TGI,[60],35.3 µM
same,TGI,[33],28.8 µM
same,TGI,[34],37.2 µM
same,TGI,[35],29 µM
same,TGI,[36],4.77 µM
same,TGI,[37],3.04 µM
same,TGI,[38],26 µM
same,TGI,[61],20.9 µM
same,TGI,[40],22.2 µM
same,TGI,[62],25.7 µM
same,TGI,[41],17.6 µM
same,TGI,[42],33.6 µM
same,TGI,[43],31.6 µM
same,TGI,[45],25.8 µM
same,TGI,[46],18 µM
same,TGI,[47],31.8 µM
same,TGI,[48],29.8 µM
same,TGI,[49],26.6 µM
same,TGI,[50],18.7 µM
same,TGI,[51],25.7 µM
same,TGI,[63],28.9 µM
same,TGI,[52],28.6 µM
same,TGI,[53],30.5 µM
same,TGI,[54],33.1 µM
same,TGI,[64],37.6 µM
CCC(C(C)N1CC(=O)NC(=O)C1)N1CC(=O)NC(=O)C1 (stereo not drawn),TGI,[1],> 100 µM
same,TGI,[2],> 100 µM
same,TGI,[3],> 100 µM
same,TGI,[4],> 100 µM
same,TGI,[5],> 100 µM
same,TGI,[6],> 100 µM
same,TGI,[7],> 100 µM
same,TGI,[8],> 100 µM
same,TGI,[9],> 100 µM
same,TGI,[10],> 30 µM
same,TGI,[56],> 100 µM
same,TGI,[11],> 100 µM
same,TGI,[12],> 100 µM
same,TGI,[13],> 100 µM
same,TGI,[14],> 100 µM
same,TGI,[15],> 100 µM
same,TGI,[16],> 100 µM
same,TGI,[17],> 100 µM
same,TGI,[18],> 75.9 µM
same,TGI,[19],> 100 µM
same,TGI,[20],> 27.9 µM
same,TGI,[21],> 100 µM
same,TGI,[22],> 100 µM
same,TGI,[23],> 100 µM
same,TGI,[24],> 100 µM
same,TGI,[25],> 100 µM
same,TGI,[26],> 100 µM
same,TGI,[27],> 100 µM
same,TGI,[28],> 63.5 µM
same,TGI,[29],> 100 µM
same,TGI,[59],> 100 µM
same,TGI,[30],> 100 µM
same,TGI,[31],> 100 µM
same,TGI,[32],> 100 µM
same,TGI,[33],> 100 µM
same,TGI,[34],> 100 µM
same,TGI,[35],> 100 µM
same,TGI,[36],> 100 µM
same,TGI,[37],> 100 µM
same,TGI,[38],> 100 µM
same,TGI,[39],> 100 µM
same,TGI,[40],> 100 µM
same,TGI,[41],> 100 µM
same,TGI,[42],> 100 µM
same,TGI,[43],> 100 µM
same,TGI,[44],> 100 µM
same,TGI,[45],> 100 µM
same,TGI,[46],> 100 µM
same,TGI,[47],> 100 µM
same,TGI,[48],> 100 µM
same,TGI,[49],> 100 µM
same,TGI,[50],> 100 µM
same,TGI,[51],> 100 µM
same,TGI,[52],> 100 µM
same,TGI,[53],> 100 µM
same,TGI,[54],> 95 µM
same,TGI,[64],> 100 µM
